Experimental data from patent US6720450B2, “Pesticidal activity of functionalized cyclopropanes” (North Carolina State University, priority 2001, dated 2004).

test system: mosquito larvae; test: Mosquito larval mortality bioassay in microtiter plates; assay type: in vivo; conditions: 72 h; larval mortality followed for three days; 160 μL sterile water, 1-4 μL test compound in dimethylsulfoxide, 10 μL 2% Brewer's yeast
Protocol: The term “LC50” also is used hereinafter and refers to the concentration of a pest-controlling compound of the invention in the ambient environment of the pest species that is able to cause a 50% mortality of such species. For example, in tests described hereinafter, wherein compounds of the invention are tested for pesticidal efficacy against mosquito larvae, the compounds are present in a state of dynamic equilibrium in the aqueous environment containing the yeast and are taken up by the filter-feeding mosquito larvae during their feeding on the yeast.
(§1) Mosquito larval mortality was followed for three days in microtiter plates containing 160 μL sterile water, 1-4 μL of the test compound dissolved in dimethylsulfoxide, and 10 μL of 2% Brewer's yeast.
as §1, with “yeast. Controls were run under the same conditions without the test compounds. Larval mortality in the controls was 3% for 1-3 μL dimethylsulfoxide, and up to 20% for 4 μL dimethylsulfoxide.” for “yeast.”

| SMILES | LC50 [µM] |
| --- | --- |
| O=C(O)CCC1CC1CCc1ccccc1 (stereo not drawn) [IBI-215, 7-Phenyl-trans-(4,5-methano)heptanoic acid] | 180 ± 30 |
| O=C(O)CCC1CC1CCC1CCCCC1 (stereo not drawn) [IBI-216, 7-Cyclohexyl-trans-(4,5-methano)heptanoic acid] | 300 ± 10 |
| O=C(O)CCC1CC1CCc1ccc(-c2ccccc2)cc1 (stereo not drawn) [IBI-217, 7-(4-Phenyl)phenyl-trans-(4,5-methano)heptanoic acid] | 130 ± 40 |
